Results on 3 compounds are retold here after ChEMBL document CHEMBL1155145, “Calcineurin inhibition or mutation enhances cell wall inhibitors against Aspergillus fumigatus” (2007).

Active and inactive are the calls of the source. The rule behind the calls is not given here.

In experiment [1] the test system is Aspergillus fumigatus. In words: Decrease in 1,3-beta-D-glucan level in Aspergillus fumigatus assessed as relative fluorescence units at 1 ug/ml by aniline blue fluorescence assay. The experiment is classed as functional.
Experiment [2] concerns Aspergillus fumigatus. Kind of experiment: Decrease in 1,3-beta-D-glucan level in Aspergillus fumigatus expressing delta-cnaA mutant assessed as relative fluorescence units at 1 ug/ml by aniline blue fluorescence assay. The experiment is classed as functional.
Experiment [3] has as its system Aspergillus fumigatus. Kind of experiment: Antifungal activity against Aspergillus fumigatus expressing delta-cnaA mutant assessed as dead microbial cells at 1 ug/ml by trimethine oxonol staining. The experiment is classed as functional.
In experiment [4] the test system is Aspergillus fumigatus. Kind of experiment: Antifungal activity against Aspergillus fumigatus assessed as inhibition of hyphal growth at 1 ug/ml by radial growth assay. Type of experiment: functional, organism-based.
The subject of experiment [5] is Aspergillus fumigatus. In words: Antifungal activity against Aspergillus fumigatus assessed as induction of stunted hyphal tips at 20 ng/ml after 6 hrs. The experiment is classed as functional, organism-based.
Experiment [6] relates to Aspergillus fumigatus. Kind of experiment: Antifungal activity against Aspergillus fumigatus ungerminated conidia assessed as delay in germ-tube extension at 20 ng/ml after 60 hrs of fungal growth. The experiment is classed as functional, organism-based.
In experiment [7] the test system is Aspergillus fumigatus. In words: Decrease in 1,3-beta-D-glucan level in Aspergillus fumigatus assessed as relative fluorescence units at 20 ng/ml by aniline blue fluorescence assay. Type of experiment: functional.
Experiment [8] deals with Aspergillus fumigatus. In words: Effect on cellular morphology of Aspergillus fumigatus assessed as induction hyphal tips blunting at 20 ng/ml. Type of experiment: functional, organism-based.
For experiment [9], the system named is Aspergillus fumigatus. In words: Effect on cellular morphology of Aspergillus fumigatus expressing delta-cnaA mutant assessed as induction hyphal tips blunting at 20 ng/ml. Type of experiment: functional, organism-based.
For experiment [10], the system named is Aspergillus fumigatus. In words: Antifungal activity against Aspergillus fumigatus assessed as inhibition of hyphal growth at 20 ng/ml by radial growth assay. Type of experiment: functional, organism-based.
Experiment [11] concerns Aspergillus fumigatus. In words: Antifungal activity against Aspergillus fumigatus assessed as induction of balloon-like of hyphal apical tips at 32 ug/ml after 48 hrs. Type of experiment: functional, organism-based.

With `CC[C@H](C)C[C@H](C)CCCCCCCCC(=O)N[C@H]1C[C@@H](O)[C@@H](NCCN)NC(=O)[C@@H]2[C@@H](O)CCN2C(=O)[C@H]([C@H](O)CCN)NC(=O)[C@H]([C@H](O)[C@@H](O)c2ccc(O)cc2)NC(=O)[C@@H]2C[C@@H](O)CN2C(=O)[C@H]([C@@H](C)O)NC1=O` [CASPOFUNGIN], the RFU with Aspergillus fumigatus [1] worked out at 6.187; with Aspergillus fumigatus [2], 1.086. Moreover, the Activity in the experiment on Aspergillus fumigatus [3] came to 15%. Further, in the experiment on Aspergillus fumigatus [4], the result was Active.
Consider `C=CC[C@@H]1/C=C(\C)C[C@H](C)C[C@H](OC)[C@H]2O[C@@](O)(C(=O)C(=O)N3CCCC[C@H]3C(=O)O[C@H](/C(C)=C/[C@@H]3CC[C@@H](O)[C@H](OC)C3)[C@H](C)[C@@H](O)CC1=O)[C@H](C)C[C@@H]2OC` [TACROLIMUS ANHYDROUS], for which the Activity result with Aspergillus fumigatus [5] and in the experiment on Aspergillus fumigatus [6] was “Dose-dependent effect” in each case. Further, the RFU in the experiment on Aspergillus fumigatus [7] is reported as 2.909. Also, the result with Aspergillus fumigatus [8], with Aspergillus fumigatus [9] and in the experiment on Aspergillus fumigatus [10] was Active.
Regarding `C[C@@H]([C@H](N)C(=O)N[C@H](C(=O)O)[C@H]1O[C@@H](n2ccc(=O)[nH]c2=O)[C@H](O)[C@@H]1O)[C@H](O)c1ccc(O)cn1`, the outcome in the experiment on Aspergillus fumigatus [11] was Active.
